Source: ChEMBL document CHEMBL1137424, “Array synthesis of progesterone receptor antagonists: 3-aryl-1,2-diazepines” (Bioorg Med Chem Lett, 2006)

Legend:
Progesterone receptor [1] = target: T1, Progesterone receptor (Homo sapiens, UniProt P06401); experiment: Binding affinity at PR by fluorescence binding assay
T1 sequence (P06401 whole entry): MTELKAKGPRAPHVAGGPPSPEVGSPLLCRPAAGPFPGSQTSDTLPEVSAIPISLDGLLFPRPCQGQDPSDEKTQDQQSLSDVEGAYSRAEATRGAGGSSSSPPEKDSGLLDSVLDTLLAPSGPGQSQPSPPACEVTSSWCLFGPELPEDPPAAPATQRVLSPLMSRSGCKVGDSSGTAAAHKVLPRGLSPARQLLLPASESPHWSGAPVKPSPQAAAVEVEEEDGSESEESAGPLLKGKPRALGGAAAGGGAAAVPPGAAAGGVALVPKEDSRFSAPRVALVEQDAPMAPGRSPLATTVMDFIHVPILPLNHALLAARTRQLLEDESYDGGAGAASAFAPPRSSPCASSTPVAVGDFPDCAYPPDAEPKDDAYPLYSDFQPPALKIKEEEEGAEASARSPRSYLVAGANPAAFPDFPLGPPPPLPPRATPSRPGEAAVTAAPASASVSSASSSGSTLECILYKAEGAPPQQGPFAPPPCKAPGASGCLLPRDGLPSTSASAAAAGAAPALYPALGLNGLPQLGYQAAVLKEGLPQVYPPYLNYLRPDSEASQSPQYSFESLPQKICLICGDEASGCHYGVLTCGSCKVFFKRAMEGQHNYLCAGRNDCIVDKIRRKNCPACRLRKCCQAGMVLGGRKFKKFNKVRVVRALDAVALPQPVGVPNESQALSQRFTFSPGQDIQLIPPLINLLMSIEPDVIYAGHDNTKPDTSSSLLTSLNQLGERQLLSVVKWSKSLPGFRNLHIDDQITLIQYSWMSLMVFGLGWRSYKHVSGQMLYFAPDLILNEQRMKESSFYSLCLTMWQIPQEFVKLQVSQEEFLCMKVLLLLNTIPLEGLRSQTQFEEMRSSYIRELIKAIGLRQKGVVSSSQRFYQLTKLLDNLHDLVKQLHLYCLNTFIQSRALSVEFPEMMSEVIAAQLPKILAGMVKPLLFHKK

Progesterone receptor [2] = target: T1, Progesterone receptor; experiment: Antagonist activity against PR beta-mediated transactivation of MMTV luciferase reporter gene in BacMam transduced progesterone-stimulated CV1 cells; assay type: functional, cell-based, CV-1

Row | Compound | Ki (Progesterone receptor [1]) [µM] | IC50 (Progesterone receptor [2]) [µM]
1 | N#Cc1ccc(C2=NN(S(=O)(=O)c3ccc(Br)s3)CCCC2)cc1 | 0.0631 | –
2 | Cc1c(Cl)cccc1S(=O)(=O)N1CCCCC(c2cccc(Cl)c2)=N1 | 0.316 | 2
3 | O=S(=O)(c1cccc(Cl)c1)N1CCCCC(c2ccc(Cl)cc2)=N1 | 0.631 | 1.26
4 | O=S(=O)(c1ccc(Cl)cc1)N1CCCCC(c2cccc(F)c2)=N1 | 0.794 | 0.501
5 | O=S(=O)(c1ccc(Cl)s1)N1CCCCC(c2ccccc2Cl)=N1 | 0.2 | 0.631
6 | O=S(=O)(c1ccc(Cl)cc1Cl)N1CCCCC(c2ccc(Cl)c(Cl)c2)=N1 | 0.0501 | 0.2
7 | O=[N+]([O-])c1ccc(C2=NN(S(=O)(=O)c3ccc(OC(F)(F)F)cc3)CCCC2)cc1 | 0.0501 | 0.158
8 | O=S(=O)(c1ccc(Br)s1)N1CCCCC(c2ccc(Cl)c(Cl)c2)=N1 | 0.0251 | 0.316
9 | O=S(=O)(c1ccc(Cl)s1)N1CCCCC(c2ccc(Cl)c(Cl)c2)=N1 | 0.0398 | –
10 | O=S(=O)(c1ccc(Br)s1)N1CCCCC(c2cccc(Br)c2)=N1 | 0.0631 | 0.251
11 | N#Cc1ccc(C2=NN(S(=O)(=O)c3ccccc3F)CCCC2)cc1 | 1 | 0.398
